Laboratory results from US20150157651A1, “TRI-SUBSTITUTED GLYCEROL COMPOUNDS FOR USE IN THE TREATMENT OF CLINICALLY ISOLATED SYNDROME AND/OR MULTIPLE SCLEROSIS” (ALPHAPTOSE GMBH, priority 2012, published 2015).
Values after ≈ are worked out from the molar mass of the structure shown. “Also recorded” adds a separate entry of the source.

Columns and labels:
[1] = system: CNS-infiltrating cells of EAE SJL mice; experiment: CNS cellular infiltration in EAE acute phase, flow cytometry; assay type: in vivo; conditions: 15 days after EAE induction
Procedure: FIG. 8 describes the effect of edelfosine on CNS cellular infiltration in EAE acute phase. SJL mice were immunized with […]. 15 days after EAE induction CNS cells were analyzed by flow cytometry. The administration of 10 mg/kg edelfosine reduced the absolute number of CNS-infiltrating CD45+ leukocytes (a). […] We found a significant treatment effect with a significant difference between 10 mg/kg edelfosine and PBS treatment in CD4+ cells (*P<0.05 compared to PBS control group, post-hoc comparison after 1-way ANOVA, n=4). Similar differences were found for T cells in spleens at day 9 after immunization.

human PBMCs [2] = experiment: PBMC proliferation over seven days without addition of stimulus; assay type: cell-based; conditions: 3.3 μg/ml edelfosine, up to seven days
Procedure: (§1) FIG. 1: Human T-cell proliferation was affected by edelfosine. […] (B) The inhibitory effect of edelfosine was also observed if the drug was added to already activated, proliferating T cells. […] (C) Preincubation of PBMCs with at least 3.3 μg/ml edelfosine interfered with the cells' capacity to proliferate upon PHA stimulation. No effect was detected in preconditioned, but unstimulated cells (experiments A-C: sample size n=3 donors, each approach was seeded in triplicates). (D) 1 μg/ml edelfosine or higher concentrations profoundly diminished proliferation in MBP(83-99)-specific TCLs (T-cell line). One representative TCL of two is shown. Cells were incubated in quadruplicates. (E) PBMCs were cultured without addition of stimulus. Proliferation was detectable after seven days. […] Bars represent mean values±SEM, *P<0.05, **P<0.01 and ***P<0.001 after post-hoc analysis.
In an additional approach PBMCs were incubated for up to seven days without the addition of a stimulus. Cells were cultured in medium alone, in presence of anti-HLA-DR- and anti-MHC class I-blocking antibody or with 3.3 μg/ml edelfosine.

[3] = system: relapsing-remitting EAE (RR-EAE) model in SJL mice; experiment: Relapsing-remitting EAE disease course, clinical scoring; assay type: in vivo
Source text: FIG. 6 describes the influence of edelfosine on EAE disease course. Our aim was to study the effect of edelfosine on the immune system in the context of experimental autoimmune encephalomyelitis (EAE), an animal model of multiple sclerosis. In the course of EAE CD4+ T cell and mononuclear cell inflammation is followed by axonal damage and demyelination in the central nervous system (CNS) which results in progressive hind-limb paralysis. In order to analyze the anti-inflammatory properties of edelfosine we have used the relapsing-remitting EAE (RR-EAE) model in SJL mice. We also examined the edelfosine impact on human T-cell proliferation. For EAE induction SJL mice were immunized with the proteolipid PLP(139-151). Edelfosine was adminstered by intraperitoneal injection from day 0 at a daily basis. EAE disease course was assessed by clinical scoring in a 0-5 scale until day 40 (*P<0.05, 2-way ANOVA, n=7). To investigate the therapeutic effect of edelfosine on RR-EAE disease course, SJL mice were immunized and treatment of the mice was started at disease onset by intraperitoneal injection from day 11 at a daily basis until day 45.

human CD4+ T cells [4] = experiment: Whole genome expression (microarray) analysis of CD4+ T cells; assay type: cell-based
Procedure: FIG. 2: Modulated gene expression in CD4+ T cells upon culture with edelfosine.
Enriched CD4+ T cells from PBMCs of two age-matched female as well as two age-matched male donors were incubated for 30 h without edelfosine, in presence of 3.3 μg/ml edelfosine and 10 μg/ml edelfosine, respectively. In parallel approaches, cells were incubated with beads coated with antibodies against CD2, CD3 and CD28 or with coated beads and 3.3 μg/ml edelfosine. Cell-culture supernatant was saved and cells were subjected to RNA isolation, cDNA synthesis and microarray analysis for gene expression. Comparative gene-expression analysis was performed according to FIG. 2.
In general, edelfosine modulated the gene expression of human CD4+ T cells in the case of stimulation but also if no exogenous stimulus was added, although to a limited extent. […] Therefore, further analysis of the unstimulated cells focused on the 10 μg/ml edelfosine approach. Next, the database for annotation, visualization and integrated discovery (DAVID)-bioinformatics database was used to annotate the differentially expressed genes to functional themes/groups and assign to them so-called gene-ontology (GO) terms for specific pathways of cellular function (314). The GO project is an effort to consistently describe gene products in databases. DAVID, as a tool, is designed to allow systematical mapping of large numbers of genes in lists associated with biological annotations (e.g. GO terms). Three structured controlled vocabularies (ontologies) have been developed to describe gene products in a species-independent manner: the associated biological process (BP), cellular components and molecular functions. The GOTERM_BP_FAT set which has been specifically designed by the DAVID consortium was selected to filter the broadest terms in order to prevent overshadowing of more specific terms. FIG. 3 summarizes the top-3 GO-terms which were selected due to their highest GO P-values. As shown therein, the addition of […] edelfosine was leading to an upregulation of genes associated with apoptosis and cell death in the unstimulated setting, a finding that was in accordance with the previously described analysis for annexin V and PI after edelfosine incubation.

[5] = system: human peripheral blood mononuclear cells (PBMCs); experiment: PBMC proliferation, edelfosine added on cell seeding, with or without PHA; assay type: cell-based
Procedure: as §1
FIG. 9 describes the influence of edelfosine on human T cell proliferation. […] PBMCs were used for the examination of concentration-dependent edelfosine impact on human T cell activation and proliferation (b, 72 h of co-culture). A reduction in proliferation was already detectable upon addition of 1.0 μg/ml edelfosine (**P<0.01, n=3). Enriched CD4+ T cells from PBMCs of both two age-matched female and male donors were incubated for 30 h in presence of 3.3 μg/ml edelfosine. Cells were stimulated with beads coated with antibodies against CD2, CD3 and CD28.
In order to characterize the influence of edelfosine on the proliferation of human T cells, peripheral blood mononuclear cells (PBMCs) were first stimulated with a mitogenic stimulus, PHA (phytohemagglutinin) Proliferation was analyzed after three days of culture. First, the impact of edelfosine on T-cell activation and proliferation was investigated by adding edelfosine immediately as the cells were seeded. Cells were incubated without or in the presence of PHA. […] Here, the half maximal inhibitory concentration (IC50) was determined by nonlinear regression.

human PBMCs [6] = experiment: Proliferation of already PHA-activated, proliferating PBMCs, edelfosine added two days later; assay type: cell-based
Procedure: as §1
The second approach aimed at characterizing the edelfosine influence on already proliferating cells. For that reason cells were activated with PHA, and edelfosine was added two days later.

human PBMCs [7] = experiment: PBMC proliferation after 24 h preincubation with edelfosine, washing, then PHA stimulation; assay type: cell-based
Procedure: as §1
Cells were washed extensively to remove edelfosine followed by further culturing for three days. In control approaches cells were incubated without PHA. […] 3.3 μg/ml edelfosine or higher interfered with the cellular capacity to proliferate upon stimulation with PHA.

[8] = system: lymph node cells of SJL mice; experiment: Ex vivo thymidine proliferation of lymph node cells from treated immunized mice; assay type: in vivo
Procedure: FIG. 7 describes the impact of edelfosine on proliferation of antigen-specific cells. To examine the influence of edelfosine on antigen-specific cells in the periphery lymph nodes from SJL mice were prepared for thymidine proliferation assays 9 days after immunization. Cells were restimulated ex vivo by addition of mitogenic- (a), polyclonal or disease-relevant (PLP(139-151); b) antigen.

non-stimulated PBMCs = experiment: Flow cytometry of non-stimulated PBMCs for cell death; assay type: cell-based, human; conditions: 10 μg/ml or 33.3 μg/ml, 24 h
human CD4+ T cells [9] = experiment: Whole genome expression (microarray) analysis of CD4+ T cells; assay type: cell-based; conditions: unstimulated cells, 10 μg/ml, 30 h
[10] = cells stimulated with anti-CD2/CD3/CD28 beads, 3.3 μg/ml, 30 h
[11] = unstimulated cells, 10 μg/ml, 30 h

For `CCCCCCCCCCCCCCCCCCOC[C@H](COP(=O)([O-])OCC[N+](C)(C)C)OC` (racemic) [edelfosine, 1-O-octadecyl-2-O-methyl-sn-glycero-3-phosphocholine], the “absolute number of CNS-infiltrating CD45+ leukocytes” value ([1]; 10 mg/kg) was “reduced”, the “frequencies of CD8+ T cells” value ([1]; 10 mg/kg) was “not affected” and the “infiltrating CD4+ T cells” value ([1]; 10 mg/kg) was “relative decrease”. For the same molecule, the “activation of caspase 3 in CNS CD4+ T cells” value ([1]; significant for 10 mg/kg versus PBS) was “dose-dependent activation; also recorded: increased”, the “effect on proliferation without stimulus” value (human PBMCs [2]) was “reduced to non-detectable levels; also recorded: inhibited cellular proliferation” and the EAE disease course ([3]; prophylactic, 10 mg/kg daily intraperitoneal from day 0) was “EAE amelioration”. For the same molecule, the EAE disease course ([3]; therapeutic, 10 mg/kg daily intraperitoneal from disease onset (day 11)) was “EAE amelioration”, the “expression of cell cycle-associated genes” value (human CD4+ T cells [4]; [10]) was “downmodulation; also recorded: down-regulated” and the “expression of genes associated with apoptosis and cell death” value (human CD4+ T cells [4]; [10]) was “upregulation”. For the same molecule, the “expression of immune and virus response-associated, type I interferon-related genes” value (human CD4+ T cells [4]; [10]) was “consistent and profound upregulation; also recorded: upregulated”, the “number of downregulated genes assigned to antigen processing and presentation (SLR≦−0.8)” value (human CD4+ T cells [4]; unstimulated cells, 10 μg/ml) was 25 and the “expression of immune response and antigen processing and presentation (MHC class II) genes” value (human CD4+ T cells [4]; [11]) was “downmodulation; also recorded: downregulated”. For the same molecule, the “number of upregulated genes (SLR≧0.8)” value (human CD4+ T cells [4]; [11]) was 11, the IC50 ([5]; Homo sapiens, PBMC, 72 h, read-out: half maximal inhibitory concentration (IC50) of proliferation, PHA-stimulated cells, edelfosine added at seeding, three days of culture) was 0.64 ± 0.1 µg/mL (≈ 1.22 µM) and the “fold lower concentration at which PHA-activated cells are susceptible compared to cells without PHA” value ([5]; PHA-activated versus unstimulated PBMCs) was 10 fold. For the same molecule, the “edelfosine concentration at which a reduction in proliferation was detectable” value ([5]; unstimulated controls, added at seeding, three days) was at least 10 µg/mL, the “edelfosine concentration giving efficient reduction of proliferation” value (human PBMCs [6]; PHA-activated cells, edelfosine added two days later) was at least 3.3 µg/mL and the “edelfosine concentration giving significant reduction of proliferation” value (human PBMCs [6]; unstimulated controls) was 33.3 µg/mL. The “edelfosine concentration up to which cells retain proliferative function” value (human PBMCs [7]; 24 h preincubation, washed, PHA stimulation, three days) was “up to 1 μg/ml”, the effect on proliferation (human PBMCs [7]; preconditioned but unstimulated cells) was “no significant reductions of proliferation; also recorded: No effect” and the “proliferative function of lymph node cells on ex vivo restimulation” value ([8]; 9 days after immunization, edelfosine-treated mice) was “retained their proliferative function”. The “proliferation on re-activation with PLP peptide” value ([8]; 9 days after immunization, ex vivo PLP restimulation) was “edelfosine dose-dependent proliferation”, the “SI compared to PBS treatment of mice” value ([8]; antigen-induced proliferation, edelfosine-treated mice) was “increased SI” and the “cell death in non-stimulated PBMCs” value (non-stimulated PBMCs) was “induction of non-apoptotic cell death”. The “expression of apoptosis- and cell death-associated genes” value (human CD4+ T cells [9]) was “upregulation”.
